These results are taken from patent US20250320204A1 (RIBOSCIENCE LLC, priority 2023, published 2025).

For one assay, the system named is HGS tumor model. Nature of the assay: Anti-tumor activity in HGS tumor model. Type of assay: in vivo. Conditions: animals treated with 20/kg of compound, day 42 after inoculation.
Text: […]

Assay [1] has as its target T1, ENPP1 (Homo sapiens, UniProt P22413).
T1 sequence (P22413 1-925): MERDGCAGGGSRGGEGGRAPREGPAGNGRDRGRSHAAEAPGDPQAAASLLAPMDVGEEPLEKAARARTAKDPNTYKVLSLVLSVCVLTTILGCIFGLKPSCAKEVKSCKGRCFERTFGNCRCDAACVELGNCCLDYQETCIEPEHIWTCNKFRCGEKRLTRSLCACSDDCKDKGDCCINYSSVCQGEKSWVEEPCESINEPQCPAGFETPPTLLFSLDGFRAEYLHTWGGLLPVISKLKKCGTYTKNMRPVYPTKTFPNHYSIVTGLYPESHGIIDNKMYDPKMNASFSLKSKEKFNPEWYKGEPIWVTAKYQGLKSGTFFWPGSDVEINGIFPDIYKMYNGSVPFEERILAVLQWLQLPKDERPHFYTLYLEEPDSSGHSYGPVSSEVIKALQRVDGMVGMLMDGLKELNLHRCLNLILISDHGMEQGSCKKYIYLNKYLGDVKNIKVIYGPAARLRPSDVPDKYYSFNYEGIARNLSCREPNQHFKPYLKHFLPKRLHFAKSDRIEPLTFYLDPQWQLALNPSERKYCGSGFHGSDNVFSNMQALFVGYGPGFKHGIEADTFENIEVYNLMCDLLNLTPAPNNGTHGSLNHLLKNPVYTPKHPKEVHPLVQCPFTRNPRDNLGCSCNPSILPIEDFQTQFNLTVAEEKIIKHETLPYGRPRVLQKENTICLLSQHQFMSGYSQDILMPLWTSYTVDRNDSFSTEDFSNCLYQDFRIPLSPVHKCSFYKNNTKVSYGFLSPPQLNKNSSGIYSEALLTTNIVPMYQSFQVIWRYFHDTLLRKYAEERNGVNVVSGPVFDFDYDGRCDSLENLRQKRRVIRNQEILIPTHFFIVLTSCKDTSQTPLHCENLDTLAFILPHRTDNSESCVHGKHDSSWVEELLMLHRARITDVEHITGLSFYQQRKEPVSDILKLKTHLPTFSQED
As to the kind of experiment: Measurement of pNP-TMP hydrolysis by ENPP1. In kind it is biochemical. The note with it: pNP-TMP substrate 500 μM, Km 232 μM; Ki from IC50 by Cheng-Prusoff. On the procedure: Measurement of pNP-TMP hydrolysis by ENPP1
p-Nitrophenyl thymidine 5′-monophosphate (pNP-TMP) is a synthesized substrate for ENPP1. The ENPP1 enzyme activity assay with pNP-TMP substrate was conducted as follows:
First, in a 60 μl reaction, 7.5 ng purified ENPP1 was mixed with 1.2 μl compounds of Formula (I) (test compound) ranging from 13.7 nM to 10 μM. Incubation of ENPP1 with compounds was set at 25° C. for 10 min. Reactions with DMSO only (with ENPP1 but no compound) gave the fastest reaction (MAX Activity). For each compound dilution, wells with assay buffer (50 mM Tris -HCl, pH8.8, 250 mM NaCl, 0.1 mg/ml BSA) and test compounds but no ENPP1 were included as controls for the subtraction of test compound derived absorbance at 405 nm.
Second, after 10 minutes incubation of ENPP1 and test compound, the assay was initiated by transferring 50 μl of the above mentioned ENPP1/test compound reaction into 50 μl of 1 mM pNP-TMP in assay buffer results in a 100 μl total reaction in non-binding surface clear bottom 96 well plates. Absorbance at 405 nm was recorded immediately in kinetic mode by PerkinElmer 2300 Enspire multimode plate reader.
For each inhibitor, the specific ENPP1 activity was calculated using the following equation: ENPP1 activity (pmol/min/μg)=Adjusted Vmax (OD405 nm/min) X conversion factor (pmol/OD405 nm)/amount of enzyme (μg)
Adjusted Vmax=V0X (Km+(S))/(S). In this assay, Km=232 μM, (S)=500 μM. Adjusted Vmax=1.464 X V0.
V0=(OD405 nm with ENPP1-OD405 nm ENPP1 blank)/minutes. OD405 nm was plotted, with blank subtracted, against time (minutes), the initial linear rate is V0.
The conversion factor (pmol/OD405 nm), was determined by plotting the amount of standard, 4-Nitrophenol (Sigma -Aldrich, Catalog #241326), against absorbance at 405 nm. The slope is the conversion factor. The percent ENPP1 activity for each sample was calculated using the following equation: […]
To determine the IC50 for each compound, compound concentration values and percent enzyme activity values were inserted into GraphPad Prism (GraphPad Prism version 9.0 for Windows, GraphPad Software, La Jolla California USA, www.graphpad.com), and Prism's Transform analysis was used to convert the x-axis values (compound concentration) to logarithms. A sigmoidal variable slope nonlinear regression analysis was performed using the following equation: Y=Bottom+ (Top-Bottom)/(1+10^((Log IC50″X) *HillSlope)).
Ki values for each compound were calculated from the observed IC50 from GraphPad analysis using the Cheng-Prusoff equation: Ki=IC50/(1+(S)/KM). (S) here is 500 μM and KM is determined to be 232 μM.

The target in assay [2] is T1, ENPP1. Nature of the assay: Measurement of 2′3′-cGAMP hydrolysis by ENPP1 (AMP-Glo). The note with it: 2′3′-cGAMP substrate 100 μM, KM 32 μM; Ki from IC50 by Cheng-Prusoff. In kind it is biochemical. On the procedure:
Measurement of 2′3′-cGAMP hydrolysis by ENPP1
The AMP-Glo assay kit from Promega (catalog number V5012) was used for measurement of 5′-AMP production.
First, an ENPP1 and test compound incubation was set up in assay buffer (50 mM Tris -HCl, pH8.8, 250 mM NaCl, 0.1 mg/ml BSA) with following conditions: ENPP1 concentration: 1.25 nM; test compound concentration ranging from 137 pM to 100 nM. The incubation was carried out at 25° C. for 10 min.
Second, after the 10-minute incubation of ENPP1 and test compound, prepare on a separate plate, 15 μl of the substrate 2′3′-cGAMP at 200 μM in assay buffer. Then, 15 μl of the ENPP1/Compound incubation was transferred to the 200 μM 2′3′-cGAMP solution to initiate the reaction. The 30 μl mixture was incubated for 30 min at 25° C. In all these assays a DMSO control without compound was included which gave the maximum 5′-AMP production (MAX RLU). After 30 min the reaction was stopped by heating at 90° C. for 3 min.
Third, the Promega AMP-Glo kit was used to detect 5′-AMP production as a measurement of ENPP1 enzyme activity. Briefly, 10 μl of the above mentioned 30 μl total reaction per sample was transferred into 384 well white solid assay plate for measurement of 5′-AMP production. For each well, 10 μl of AMP-Glo Reagent I was added, mixed well, and incubated for 1 hour at 25° C. At this time AMP detection solution was prepared and 20 μl was added per well, and the resulting solution was incubated for 1 hr at 25° C. Duplicates were run for each inhibitor concentration. Luminescence signal (relative luminescence units, RLU) was recorded using a PerkinElmer 2300 Enspire multimode plate reader.
The % inhibition was calculated using the following equation: % inhibition=(MAX RLU-sample RLU)/MAX RLU X 100%.
IC50 values of compounds were determined by loading compound concentration data and percent inhibition values into GraphPad Prism (GraphPad Prism version 7.0 for
Windows, GraphPad Software, La Jolla California USA, www.graphpad.com) and conducted a Sigmoidal variable slope nonlinear regression fitting.
Ki values for each compound were calculated from the observed IC50 from GraphPad analysis using the Cheng-Prusoff equation: Ki=IC50/(1+ (S)/KM). (S) here is 100μ M and KM is 32 μm.

Compound `C=CC(=O)N1CCN(CCCn2c(=O)c(-c3c(Cl)c(OC)cc(OC)c3Cl)cc3cnc(NC)nc32)CC1` [8-(3-(4-acryloylpiperazin-1-yl)propyl)-6-(2,6-dichloro-3,5-dimethoxyphenyl)-2-(methylamino)pyrido (2,3-d)pyrimidin-7 (8H)-one] returned a tumor size in the assay on HGS tumor model of 55 mm3.

As for `N=S(=O)(c1cc(F)cc(COc2ccnc3c(OCF)nccc23)c1)C1CC1` (stereo not drawn) [Example 69, cyclopropyl(3-fluoro-5-(((8-(fluoromethoxy)-1,7-naphthyridin-4-yl)oxy)-methyl)phenyl) (imino)-lambda6-sulfanone], the values for the Ki at ENPP1 [1] and on ENPP1 [2] were less than 10 nM and less than 1 nM, respectively.
